Laboratory results from PMC5435703 (Scientific Reports, 2017).
Converted amounts (≈) assume the structure as drawn. “Also recorded” adds a separate entry of the source. Like-named read-outs stand apart in the source and are kept apart here. Marks after values point to notes of the source that are not given here.

Legend:
MRSA BAA-1707 [1] = assay: MIC broth microdilution assay; format: cell-based, Staphylococcus aureus; details: for MIC: Staphylococcus aureus
MRSA-1 = assay: MIC broth microdilution assay; format: cell-based, Staphylococcus aureus; details: Staphylococcus aureus, MRSA
MRSA-2 = assay: MIC broth microdilution assay; format: cell-based, Staphylococcus aureus; details: Staphylococcus aureus, MRSA
MRSE 35984 [2] = assay: MIC broth microdilution assay; format: cell-based, Staphylococcus epidermidis; details: for MIC: Staphylococcus epidermidis, MRSE
S. epi 12228 = assay: MIC broth microdilution assay; format: cell-based, Staphylococcus epidermidis; details: Staphylococcus epidermidis, 12228
VRE 700221 [3] = assay: MIC broth microdilution assay; format: cell-based, Enterococcus faecium; details: for MIC: Enterococcus, VRE
MtB H37Ra = assay: MIC assay for Mycobacterium tuberculosis; format: cell-based; details: 168 h, seven days
[4] = LDH release assay for HeLa cytotoxicity; format: cell-based; details: human, HeLa cells; LDH release, 24 hours; tested at 25, 50 and 100 µM; read-out: HeLa Cytotox. IC50
four MRSA isolates = assay: MIC assays, panel of four MRSA isolates; format: cell-based; details: Staphylococcus aureus, range over isolates, read-out: MIC against a panel of four MRSA isolates
S. epidermidis = assay: MIC assays, S. epidermidis strains; format: cell-based; details: Staphylococcus epidermidis; range over strains
[5] = Hemolysis assay with red blood cells; details: human, pH 7.2
MRSA BAA-1707 [6] = assay: Calgary Biofilm Device (CBD) MBC/MBEC assay; format: cell-based, Staphylococcus aureus; details: for MBC: Staphylococcus aureus
MRSE 35984 [7] = assay: Calgary Biofilm Device (CBD) MBC/MBEC assay; format: cell-based, Staphylococcus epidermidis
VRE 700221 [8] = assay: Calgary Biofilm Device (CBD) MBC/MBEC assay; format: cell-based, Enterococcus faecium
MRSA BAA-1707 [9] = assay: Macromolecular synthesis inhibition assay with [3H]-labeled precursors; format: cell-based, Staphylococcus aureus
Description: To characterize the antibacterial mechanism of action for HP small molecules, we investigated the effects HP 1 has against MRSA BAA-1707 on global biosynthetic pathways in rapidly-dividing (exponentially-growing) planktonic cells through quantifying the incorporation of various [^3H]-labeled precursors into their corresponding macromolecules. For these experiments, MRSA-1707 cultures were treated with [^3H]-thymidine (DNA biosynthesis), [^3H]-uridine (RNA biosynthesis) and [^3H]-leucine (protein biosynthesis) in the presence of HP 1 and antibiotic controls (4–16 x MIC).
Macromolecular syntheses experiments were carried out in methicillin-resistant Staphylococcus aureus BAA-1707. An overnight culture (100 µL) of S. aureus BAA-1707 was sub-cultured into 10 mL of fresh TSBG media which was allowed to grow to exponential phase (OD600 = 0.2–0.3) before transferring 500 µL to each well in a 24 well-plate. The test compounds and vehicle control (DMSO) were added to achieve the desired concentrations relative to their MIC values against S. aureus BAA-1707. Treated cultures were then incubated at 37 °C for 30 minutes before radioactive precursors for DNA ([^3H] thymidine (0.5 µCi)), RNA ([^3H] uridine (0.5 µCi)) and protein ([^3H] leucine (1 µCi)) were added. […] DMSO served as our negative control. DNA and RNA radiolabeled cultures were then incubated in 37 °C for 15 minutes before being stopped by adding 60 µL of cold 5% trichloroacetic acid (TCA). The protein synthesis experiment was stopped after 40 minutes by adding 60 µL cold TCA. These mixtures were then incubated at 2 °C for at least 30 minutes before the contents of the plates were transferred onto glass microfiber filters (24 mm) and washed 5 times with 1 mL of 5% TCA. The filters are allowed to dry overnight before 3.5 mL of the scintillation fluid was added to the scintillation vials containing the filters and the radiation counts were measured using liquid scintillation LS 6500.
H.) Macromolecular Synthesis Inhibition Assay: […]

[10] = single plate shown as picture, read-out: MIC (µM), MIC Assay Against MRSA-2
[11] = Table 1, read-out: MIC MRSE 35984
[12] = Table 3, read-out: MRSE 35984 MIC
[13] = Table 1, read-out: MIC S. epi 12228
[14] = single plate shown as picture, read-out: MIC (µM), MIC Assay Against S. epidermidis 12228
[15] = supplement page 28, single CBD plate

With `CCc1cccc2nc3c(O)c(Br)cc(Br)c3nc12` [HP 18] the MIC (MRSA BAA-1707 [1]; Table 1, three independent experiments, read-out: MIC MRSA BAA-1707) was 0.05 to 0.3 µM (≈ 0.0191 to 0.115 µg/mL), the MIC (MRSA BAA-1707 [1]; Table 3, read-out: MRSA BAA-1707 MIC) was at most 0.1 µM and the MIC (MRSA BAA-1707 [1]; single plate shown as picture, read-out: MIC (µM), MIC Assay against MRSA BAA-1707) was 0.1 µM (≈ 0.0382 µg/mL). For the same compound, the “MIC MRSA BAA-1707” value (MRSA BAA-1707 [1]; Table 1, three independent experiments) was ≤ 0.10^b µM, the MIC (MRSA-1; Table 1, read-out: MIC MRSA-1) was 0.15 µM (≈ 0.0573 µg/mL) and the MIC (MRSA-1; single plate shown as picture, read-out: MIC (µM), MIC Assay Against MRSA-1) was 0.2 µM (≈ 0.0764 µg/mL). For the same compound, the MIC (MRSA-2; Table 1, read-out: MIC MRSA-2) was 0.39 µM (≈ 0.149 µg/mL), the MIC (MRSA-2; [10]) was 0.39 µM (≈ 0.149 µg/mL) and the MIC (MRSE 35984 [2]; [11]) was 0.1 to 0.78 µM (≈ 0.0382 to 0.298 µg/mL). The MIC (MRSE 35984 [2]; [12]) was at most 0.1 µM, the MIC (MRSE 35984 [2]; single plate shown as picture, read-out: MIC (µM), MIC Assay Against MRSE 35984) was 0.1 µM (≈ 0.0382 µg/mL) and the “MIC MRSE 35984” value (MRSE 35984 [2]; Table 1) was ≤ 0.10^b µM. The MIC (S. epi 12228; [13]) was 0.3 µM (≈ 0.115 µg/mL), the MIC (S. epi 12228; [14]) was 0.39 µM (≈ 0.149 µg/mL) and the MIC (VRE 700221 [3]; Table 1, read-out: MIC VRE 700221) was 0.15 µM (≈ 0.0573 µg/mL). For the same compound, the MIC (VRE 700221 [3]; Table 3, read-out: VRE 700221 MIC) was 0.15 µM (≈ 0.0573 µg/mL), the MIC (VRE 700221 [3]; single plate shown as picture, read-out: MIC (µM), MIC Assay Against VRE 700221) was 0.2 µM (≈ 0.0764 µg/mL) and the “MIC VRE 700221” value (VRE 700221 [3]; Table 1) was 0.15^a µM. It also gave an MIC (MtB H37Ra) of 25 µM (≈ 9.55 µg/mL), an IC50 at 24 h [4] of over 100 µM and an MIC (four MRSA isolates) of 0.05 to 0.59 µM (≈ 0.0191 to 0.225 µg/mL). For the same compound, the MIC (S. epidermidis) was 0.1 to 0.3 µM (≈ 0.0382 to 0.115 µg/mL) and the hemolysis at 1 h, 200 µM [5] was 1.7%.
For `Oc1c(Br)cc(Br)c2nc3ccccc3nc12` [HP 1, 2,4-dibromo-1-hydroxyphenazine], the MIC (MRSA-1; Table 1, read-out: MIC MRSA-1) was 0.78 µM (≈ 0.276 µg/mL), the MIC (MRSA-2; Table 1, read-out: MIC MRSA-2) was 2.35 µM (≈ 0.832 µg/mL) and the MIC (MRSA-2; [10]) was 3.13 µM (≈ 1.11 µg/mL). For the same compound, the MIC (MRSE 35984 [2]; [11]) was 2.35 µM (≈ 0.832 µg/mL), the MIC (MRSE 35984 [2]; [12]) was 2.35 µM (≈ 0.832 µg/mL) and the “MIC MRSE 35984” value (MRSE 35984 [2]; Table 1) was 2.35^a µM. It also gave an MIC (S. epi 12228; [13]) of 2.35 µM (≈ 0.832 µg/mL), an MIC (S. epi 12228; [14]) of 3.13 µM (≈ 1.11 µg/mL) and an MIC (MtB H37Ra) of 25 µM (≈ 8.85 µg/mL). The IC50 at 24 h [4] was about 100 µM, the “MRSA-1707 Biofilm Eradication MBEC” value (MRSA BAA-1707 [6]; Figure 7A, single CBD plate) was 50 µM and the MBC (MRSA BAA-1707 [6]; 24 h, CBD, planktonic killing, 24 hours treatment, read-out: MRSA BAA-1707 MBC) was 50 µM (≈ 17.7 µg/mL). The MBC (MRSA BAA-1707 [6]; 24 h, supplement page 27, first CBD plate, read-out: MRSA Planktonic Killing MBC) was 25 µM (≈ 8.85 µg/mL), the MBC (MRSA BAA-1707 [6]; 24 h, supplement page 27, second CBD plate, read-out: MRSA Planktonic Killing MBC) was 25 µM (≈ 8.85 µg/mL) and the MBC (MRSA BAA-1707 [6]; Figure 7A, single CBD plate, read-out: MRSA-1707 Planktonic Eradication MBC) was 25 µM (≈ 8.85 µg/mL). For the same compound, the MBC (MRSE 35984 [7]; Staphylococcus epidermidis, MRSE, CBD, planktonic killing, read-out: MRSE 35984 MBC) was 23.5 µM (≈ 8.32 µg/mL), the “MRSE Biofilm Eradication MBEC” value (MRSE 35984 [7]; [15]) was 250 µM and the “MRSE Planktonic Killing MBC” value (MRSE 35984 [7]; [15]) was 15.6 µM. The MBC (VRE 700221 [8]; Enterococcus, VRE, CBD, planktonic killing, read-out: VRE 700221 MBC) was 18.8 µM (≈ 6.66 µg/mL), the “VRE Biofilm Eradication MBEC” value (VRE 700221 [8]; [15]) was 12.5 µM and the “VRE Planktonic Killing MBC” value (VRE 700221 [8]; [15]) was 12.5 µM. The “RNA biosynthesis inhibition ([3H]-uridine)” value (MRSA BAA-1707 [9]; 4 x MIC) was “inhibits”, the “protein biosynthesis inhibition ([3H]-leucine)” value (MRSA BAA-1707 [9]; 4 x MIC) was “inhibits” and the “DNA biosynthesis inhibition ([3H]-thymidine)” value (MRSA BAA-1707 [9]; 8 x MIC) was “does not inhibit; also recorded: not inhibiting”. For the same compound, the hemolysis at 1 h, 200 µM [5] was at most 1%.
